{
  "source": "patent US20240109853A1",
  "about": "(Shanghai Yao Yuan Biotechnology Co., Ltd., priority 2020, published 2024)",
  "key": {"[1]": {"target": "ALPK1 (Homo sapiens (Human), UniProt Q96QP1)", "sequence (Q96QP1 whole entry)": "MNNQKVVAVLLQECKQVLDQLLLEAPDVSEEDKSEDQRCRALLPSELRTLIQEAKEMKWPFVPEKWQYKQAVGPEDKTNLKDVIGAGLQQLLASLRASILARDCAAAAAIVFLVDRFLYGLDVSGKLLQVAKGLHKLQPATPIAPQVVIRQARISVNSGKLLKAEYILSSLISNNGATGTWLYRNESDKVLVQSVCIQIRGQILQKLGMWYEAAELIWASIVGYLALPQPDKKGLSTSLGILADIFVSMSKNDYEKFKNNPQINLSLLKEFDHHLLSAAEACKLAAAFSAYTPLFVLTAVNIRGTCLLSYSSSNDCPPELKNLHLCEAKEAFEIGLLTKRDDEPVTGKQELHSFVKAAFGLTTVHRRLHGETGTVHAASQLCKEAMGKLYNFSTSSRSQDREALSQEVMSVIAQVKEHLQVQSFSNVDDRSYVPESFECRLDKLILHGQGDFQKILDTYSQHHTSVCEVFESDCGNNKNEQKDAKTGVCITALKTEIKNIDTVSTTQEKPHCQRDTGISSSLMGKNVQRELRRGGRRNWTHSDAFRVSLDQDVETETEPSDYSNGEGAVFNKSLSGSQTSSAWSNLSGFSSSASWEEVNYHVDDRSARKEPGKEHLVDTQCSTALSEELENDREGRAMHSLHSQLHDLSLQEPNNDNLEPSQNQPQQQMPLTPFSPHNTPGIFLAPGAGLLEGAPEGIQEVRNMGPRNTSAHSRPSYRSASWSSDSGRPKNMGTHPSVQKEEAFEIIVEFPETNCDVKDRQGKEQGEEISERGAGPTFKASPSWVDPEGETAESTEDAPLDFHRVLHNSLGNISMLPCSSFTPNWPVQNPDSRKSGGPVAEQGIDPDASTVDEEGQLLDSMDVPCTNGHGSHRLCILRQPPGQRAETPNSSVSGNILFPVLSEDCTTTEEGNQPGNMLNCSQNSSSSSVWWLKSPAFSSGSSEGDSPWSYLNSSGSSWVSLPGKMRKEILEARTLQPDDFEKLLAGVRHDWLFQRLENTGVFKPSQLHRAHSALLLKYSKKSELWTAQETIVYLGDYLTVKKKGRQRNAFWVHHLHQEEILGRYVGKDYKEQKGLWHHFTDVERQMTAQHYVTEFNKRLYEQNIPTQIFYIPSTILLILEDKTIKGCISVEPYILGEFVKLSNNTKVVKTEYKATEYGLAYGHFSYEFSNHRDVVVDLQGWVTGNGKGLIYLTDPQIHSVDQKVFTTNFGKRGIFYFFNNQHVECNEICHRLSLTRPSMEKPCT", "experiment": "ALPK1 in vitro kinase assay (HTRF of TIFA phosphorylation)", "format": "biochemical"}, "[2]": {"tested_on": "ALPK1-dependent NFκB reporter gene activation in HEK293 cells stably expressing an NF-kB reporter (G9 cells)", "experiment": "NFκB gene reporter alkaline phosphatase assay", "format": "cell-based", "conditions": "Homo sapiens, HEK293; read-out: NFkB assay IC50", "method_in_brief": "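Read-out: chromogenic pNPP turnover by NF-kB-driven alkaline phosphatase in G9 cells (HEK293, stable reporter). Compound pre-incubation 30 min before agonist D-glycero-D-manno-6-fluoro-heptose-1β-S-ADP. IC50 by four-parameter logistic regression.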"}},
  "note": "pIC50: −log10 of the molar value.",
  "data": [
    {"smiles": "[2H]C([2H])(O)CNC(=O)Nc1nc([C@@](C)(C#C)c2ccc(Cl)cc2)cs1", "note": "(stereo in doubt) [Example A321, 1-[4-[1-(4-chlorophenyl)-1-methyl-prop-2-ynyl]thiazol-2-yl]-3-(2,2-dideuterio-2-hydroxy-ethyl)urea]", "values": [
      {"measurement": "pIC50", "setting": "[1]", "value": 7.55},
      {"measurement": "pIC50", "setting": "[2]", "value": 6.52}
    ]},
    {"smiles": "CC(C)(c1ccc(Br)cc1)c1csc(NC(=O)NCc2ccc(N3CCC(O)C3)cc2)n1", "note": "(stereo not shown) [Example A009, 1-(4-(2-(4-bromophenyl)propan-2-yl)thiazol-2-yl)-3-(4-(3-hydroxypyrrolidin-1-yl)benzyl)urea]", "values": [
      {"measurement": "pIC50", "setting": "[1]", "value": 6.81},
      {"measurement": "pIC50", "setting": "[2]", "value": 5.50}
    ]},
    {"smiles": "CC(C)(c1ccc(Br)cc1)c1csc(NC(=O)NCc2ccc(NCCO)cc2)n1", "note": "[Example A108, 1-(4-(2-(4-bromophenyl)propan-2-yl)thiazol-2-yl)-3-(4-((2-hydroxyethyl)amino)ben-zyl)urea]", "values": [
      {"measurement": "pIC50", "setting": "[1]", "value": 6.61},
      {"measurement": "pIC50", "setting": "[2]", "value": 6.09}
    ]},
    {"smiles": "COc1ccc(C(C)(C)c2csc(NC(=O)NCCCS(N)(=O)=O)n2)cc1", "note": "[Example A138, 3-(3-(4-(2-(4-methoxyphenyl)propan-2-yl)thiazol-2-yl)ureido)propane-1-sulfonamide]", "values": [
      {"measurement": "pIC50", "setting": "[1]", "value": 7.01},
      {"measurement": "pIC50", "setting": "[2]", "value": 5.62}
    ]},
    {"smiles": "COc1ccc(C(C)(C)c2csc(NC(=O)NCc3ccc(N(C)CCO)nc3)n2)cc1", "note": "[Example A023, 1-((6-((2-hydroxyethyl)(methyl)a-mino)pyridin-3-yl)methyl)-3-(4-(2-(4-methoxyphenyl)propan-2-yl)thiazol-2-yl)urea]", "values": [
      {"measurement": "pIC50", "setting": "[1]", "value": 6.64},
      {"measurement": "pIC50", "setting": "[2]", "value": 5.88}
    ]},
    {"smiles": "COc1ccc(C(C)(C)c2csc(NC(=O)NC3CCC(O)CC3)n2)cc1", "note": "(stereo not shown) [Example A122, 1-(4-hydroxycyclohexyl)-3-(4-(2-(4-methoxyphenyl)propan-2-yl)thiazol-2-yl)urea]", "values": [
      {"measurement": "pIC50", "setting": "[1]", "value": 6.66},
      {"measurement": "pIC50", "setting": "[2]", "value": 5.77}
    ]},
    {"smiles": "COc1ccc(C(C)(C)c2csc(NC(=O)NCCCS(=O)(=O)N3CCNCC3)n2)cc1", "note": "[Example A230, 1-(4-(2-(4-methoxyphenyl)propan-2-yl)thiazol-2-yl)-3-(3-(piperazin-1-ylsulfonyl)propyl)urea]", "values": [
      {"measurement": "pIC50", "setting": "[1]", "value": 6.90},
      {"measurement": "pIC50", "setting": "[2]", "value": 5.52}
    ]},
    {"smiles": "C#C[C@@](C)(c1ccc(Br)cc1)c1csc(NC(=O)NCC(C)(C)O)n1", "note": "(stereo in doubt) [Example A306, 1-[4-[1-(4-bromophenyl)-1-methyl-prop-2-ynyl]thiazol-2-yl]-3-(2-hydroxy-2-methyl-propyl)urea]", "values": [
      {"measurement": "pIC50", "setting": "[1]", "value": 7.25},
      {"measurement": "pIC50", "setting": "[2]", "value": 6.08}
    ]},
    {"smiles": "C#CC(C)(c1ccc(Br)cc1)c1csc(NC(=O)NCCCO)n1", "note": "(stereo not shown) [Example A154, 1-(4-(2-(4-bromophenyl)but-3-yn-2-yl)thiazol-2-yl)-3-(3-hydroxypropyl)urea]", "values": [
      {"measurement": "pIC50", "setting": "[1]", "value": 7.68},
      {"measurement": "pIC50", "setting": "[2]", "value": 6.42}
    ]},
    {"smiles": "C#C[C@](C)(c1ccc(Br)cc1)c1csc(NC(=O)NCC(C)(C)O)n1", "note": "(stereo in doubt) [Example A305, 1-[4-[1-(4-bromophenyl)-1-methyl-prop-2-ynyl]thiazol-2-yl]-3-(2-hydroxy-2-methyl-propyl)urea]", "values": [
      {"measurement": "pIC50", "setting": "[1]", "value": 6.78},
      {"measurement": "pIC50", "setting": "[2]", "value": 5.57}
    ]},
    {"smiles": "CC(NC(=O)Nc1nc(C(C)(C)c2ccc(Br)cc2)cs1)c1ccc(CN2CCN(C)CC2)cc1", "note": "(stereo not shown) [Example A118, 1-(4-(2-(4-bromophenyl)propan-2-yl)thiazol-2-yl)-3-(1-(4-((4-methylpiperazin-1-yl)methyl)phenyl)ethyl) urea]", "values": [
      {"measurement": "pIC50", "setting": "[1]", "value": 6.64},
      {"measurement": "pIC50", "setting": "[2]", "value": 5.36}
    ]},
    {"smiles": "C#C[C@@](C)(c1ccc(Br)cc1)c1csc(NC(=O)NCC(O)CO)n1", "note": "(stereo in doubt) [Example A278, 1-(4-(2-(4-bromophenyl)but-3-yn-2-yl)thiazol-2-yl)-3-(2,3-dihydroxypropyl)urea]", "values": [
      {"measurement": "pIC50", "setting": "[1]", "value": 6.20},
      {"measurement": "pIC50", "setting": "[2]", "value": 6.28}
    ]},
    {"smiles": "C#CC(C)(c1ccc(Cl)cc1)c1csc(NC(=O)N2CCC(O)CC2)n1", "note": "(stereo not shown) [Example A307, N-(4-(2-(4-chlorophenyl)but-3-yn-2-yl)thiazol-2-yl)-4-hydroxypiperidine-1-carboxamide]", "values": [
      {"measurement": "pIC50", "setting": "[1]", "value": 5.69},
      {"measurement": "pIC50", "setting": "[2]", "value": 5.50}
    ]},
    {"smiles": "C#C[C@](C)(c1ccc(F)cc1)c1csc(NC(=O)NCCS(N)(=O)=O)n1", "note": "[Example A284, 2-(3-(4-(2-(4-fluorophenyl)but-3-yn-2-yl)thiazol-2-yl)ureido)ethanesulfona-mide]", "values": [
      {"measurement": "pIC50", "setting": "[1]", "value": 6.18},
      {"measurement": "pIC50", "setting": "[2]", "value": 5.59}
    ]}
  ]
}
